One block for each molecule: values may come before it.
Biological target: Recombinant human CD33 protein (Homo sapiens (Human), UniProt P20138)
Experiment: CD33 competitive binding assay for HTS drug screen (fluorescent multivalent sialic acid probe)
Description: This is a competitive binding assay that uses recombinant CD33 immobilized to a plate and a fluorescently-labeled multivalent sialic acid analog as a probe. Binding of drug to the site on CD33 to which sialic acid binds is detected by reduced binding of the fluorescent probe. Recombinant human CD33 protein (for example Acro Biosystems cat #CD3-H5257) was added at a concentration of 10 μg/ml in 20 mM acetate buffer (pH5.5) to a black plastic plate (Corning 4510) and allowed to incubate overnight at 4° C. The next day, the wells were washed 3 times with PBS containing 0.02% Tween-20. This was followed by a 30-minute incubation with PBS containing 0.2% Tween-20 and 0.5% BSA to block non-specific binding to the well. This buffer is removed and replaced with 10 μl of the same buffer, which is also used as the assay buffer. The fluorescent multivalent sialic acid probe was prepared as a 4× concentration as follows. A biotinylated sialic acid analog A-375 was mixed with biotin-4-Fluorescein isothiocyanate (biotin-4-FITC) at a 3:1 molar ratio with final concentrations (4× stock) of 60 μM A-375 and 20 μM biotin-4-FITC. After these were mixed, 20 μM of neutravidin was added, which should form complexes consisting of neutravidin, fluorescein and sialic acid with an average complex consisting of 1 neutravidin, 1 FITC and 3 sialic acid analogs. The multimerization of the sialic acid analog is critical to the assay and improves the affinity of the sialic acid analog several orders of magnitude. A test compound, for example A-001, is added at 5 μl to the 10 μl assay buffer already in the well. After a brief incubation, 5 μl of the 4× stock solution of sialic acid complexes was added. The final concentration of the complexes was therefore 5 μM neutravidin, 15 μM A-375 and 5 μM FITC. The plate was incubated at room temperature for 30 mins and then washed with PBS containing 0.2% Tween-20. Binding of the sialic acid complex is very stable, with an off-rate of several days. Bound complex was then detected using a standard plate reader to quantify FITC fluorescence.

Sequence of Recombinant human CD33 protein (P20138 18-259): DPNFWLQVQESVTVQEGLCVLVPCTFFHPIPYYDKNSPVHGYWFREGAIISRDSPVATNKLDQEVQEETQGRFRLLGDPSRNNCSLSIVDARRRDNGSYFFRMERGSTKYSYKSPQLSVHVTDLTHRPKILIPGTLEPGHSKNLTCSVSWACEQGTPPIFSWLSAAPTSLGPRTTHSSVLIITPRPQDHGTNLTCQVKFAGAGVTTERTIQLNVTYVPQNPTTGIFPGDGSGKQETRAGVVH

SMILES: CC(=O)N[C@H]1[C@H]([C@H](O)[C@H](O)CNC(=O)c2cc(C)c(O)c(C)c2)O[C@@](CCN2CCOC[C@@]23CCN(C(=O)C(C)(C)Oc2ccccc2)C3)(C(=O)O)C[C@@H]1O [A-081]
EC50: 1.95 µM

SMILES: CC(=O)N[C@H]1[C@H]([C@H](O)[C@H](O)CNC(=O)c2cc(C)c(O)c(C)c2)O[C@@](CCN2CCOC[C@@]23CCN(C(=O)c2ccccn2)C3)(C(=O)O)C[C@@H]1O [A-087]
EC50: 5.26 µM

SMILES: CC(=O)N[C@H]1[C@H]([C@H](O)[C@H](O)CNC(=O)c2cc(C)c(O)c(C)c2)O[C@@](CCN2CCOC[C@@]23CCN(C(=O)C(c2ccccc2)C2CCCCC2)C3)(C(=O)O)C[C@@H]1O (stereo partly shown) [A-089]
EC50: 0.291 µM

SMILES: CC(=O)N[C@H]1[C@H]([C@H](O)[C@H](O)CNC(=O)c2cc(C)c(O)c(C)c2)O[C@@](CCN2CCOC[C@@]23CCN(C(=O)COC2CCCC2)C3)(C(=O)O)C[C@@H]1O [A-092]
EC50: 2.05 µM

SMILES: CC(=O)N[C@H]1[C@H]([C@H](O)[C@H](O)CNC(=O)c2cc(C)c(O)c(C)c2)O[C@@](CCN2CCOC[C@@]23CCN(C(=O)c2ccc4[nH]cnc4c2)C3)(C(=O)O)C[C@@H]1O [A-094]
EC50: 2.33 µM

SMILES: CC(=O)N[C@H]1[C@H]([C@H](O)[C@H](O)CNC(=O)c2cc(C)c(O)c(C)c2)O[C@@](CCN2CCOC[C@@]23CCN(C(=O)c2ccc4[nH]c(C(C)O)nc4c2)C3)(C(=O)O)C[C@@H]1O (stereo partly shown) [A-095]
EC50: 1.69 µM

SMILES: CC(=O)N[C@H]1[C@H]([C@H](O)[C@H](O)CNC(=O)c2cc(C)c(O)c(C)c2)O[C@@](CCN2CCOC[C@@]23CCN(Cc2cccc(C)c2)C3)(C(=O)O)C[C@@H]1O [A-104]
EC50: > 10 µM

SMILES: CC(=O)N[C@H]1[C@H]([C@H](O)[C@H](O)CNC(=O)c2cc(C)c3[nH]ncc3c2)O[C@@](CCN2CCOC[C@@]23CCN(C(=O)OC(C)(C)C)C3)(C(=O)O)C[C@@H]1O [A-130]
EC50: 0.009 µM

SMILES: CC(=O)N[C@H]1[C@H]([C@H](O)[C@H](O)CNC(=O)c2ccc3sc(C)nc3c2)O[C@@](CCN2CCOC[C@@]23CCN(C(=O)OC(C)(C)C)C3)(C(=O)O)C[C@@H]1O [A-131]
EC50: 0.024 µM

SMILES: CC(=O)N[C@H]1[C@H]([C@H](O)[C@H](O)CNC(=O)/C=C/c2cn[nH]c2)O[C@@](CCN2CCOC[C@@]23CCN(C(=O)OC(C)(C)C)C3)(C(=O)O)C[C@@H]1O [A-176]
EC50: 0.65 µM

SMILES: CC(=O)N[C@H]1[C@H]([C@H](O)[C@H](O)CNC(=O)c2cc(C)c(O)c(C)c2)O[C@@](CN2CCCC3(CCN(C(=O)OC(C)(C)C)C3)C2)(C(=O)O)C[C@@H]1O (stereo partly shown) [A-193]
EC50: 0.09 µM

SMILES: CC(=O)N[C@H]1[C@H]([C@H](O)[C@H](O)CNC(=O)c2cc(C)c(O)c(C)c2)O[C@@](C/C=C/C2(O)CCN(C(=O)OC(C)(C)C)C2)(C(=O)O)C[C@@H]1O (stereo partly shown) [A-197]
EC50: 0.181 µM

SMILES: CC(=O)N[C@H]1[C@H]([C@H](O)[C@H](O)CNC(=O)c2cc(C)c(O)c(C)c2)O[C@@](C/C=C/C2(F)CCN(C(=O)OC(C)(C)C)C2)(C(=O)O)C[C@@H]1O (stereo partly shown) [A-198]
EC50: 0.148 µM

SMILES: CC(=O)N[C@H]1[C@H]([C@H](O)[C@H](O)CNC(=O)c2cc(C)c(O)c(C)c2)O[C@@](C/C=C/C2CCN(c3cc(N(C)C)ccn3)C2)(C(=O)O)C[C@@H]1O (stereo partly shown) [A-199]
EC50: 9.86 µM

SMILES: Cc1cc(C(=O)NC[C@@H](O)[C@@H](O)[C@@H]2O[C@@](CCN3CCOC[C@@]34CCN(C(=O)OC(C)(C)C)C4)(C(=O)O)C[C@H](O)[C@H]2N(C)C)cc(C)c1O [A-203]
EC50: > 5 µM

SMILES: Cc1cc(C(=O)NC[C@@H](O)C[C@H]2CCC[C@](CCN3CCOC[C@@]34CCN(C(=O)OC(C)(C)C)C4)(C(=O)O)O2)cc(C)c1O [A-208]
EC50: > 20 µM

SMILES: Cc1cc(C(=O)NC[C@@H](O)C[C@H]2CC[C@H](C)[C@](CCN3CCOC[C@@]34CCN(C(=O)OC(C)(C)C)C4)(C(=O)O)O2)cc2cc[nH]c12 [A-216]
EC50: 12.2 µM

SMILES: Cc1cc(C(=O)NC[C@@H](O)C[C@H]2CC[C@@H](C)[C@](CCN3CCOC[C@@]34CCN(C(=O)OC(C)(C)C)C4)(C(=O)O)O2)cc2cc[nH]c12 [A-217]
EC50: > 20 µM

SMILES: Cc1cc(C(=O)NC[C@H](O)C[C@H]2CC[C@H](C)[C@](CCN3CCOC[C@@]34CCN(C(=O)OC(C)(C)C)C4)(C(=O)O)O2)cc2cc[nH]c12 [A-218]
EC50: > 20 µM

SMILES: Cc1cc(C(=O)NC[C@H](O)C[C@H]2CC[C@@H](C)[C@](CCN3CCOC[C@@]34CCN(C(=O)OC(C)(C)C)C4)(C(=O)O)O2)cc2cc[nH]c12 [A-219]
EC50: > 20 µM

SMILES: CC(=O)N[C@H]1[C@H]([C@H](O)[C@H](O)CNC(=O)c2cc(C)c(O)c(C)c2)O[C@@](C[C@@H]2COC[C@@]3(CCN(C(=O)OC(C)(C)C)C3)N2)(C(=O)O)C[C@@H]1O [A-226, (2R,4S,5R,6R)-5-acetamido-2-(((5S,7R)-2-(tert-butoxycarbonyl)-9-oxa-2,6-diazaspiro[4.5]decan-7-yl)methyl)-6-((1R,2R)-1,2-dihydroxy-3-(4-hydroxy-3,5-dimethylbenzamido)propyl)-4-hydroxytetrahydro-2H-pyran-2-carboxylic acid]
EC50: 3.87 µM

SMILES: C#C[C@H](C)C(=O)C(=O)Nc1cccc([C@@H]2OC(C)(C)OC2C[C@]2(C(=O)O)C[C@H](O)[C@@H](NC(C)=O)[C@H]([C@H](O)[C@H](O)CNC(=O)c3cc(C)c(O)c(C)c3)O2)c1 (stereo partly shown) [A-306]
EC50: 5.62 µM

SMILES: CC(=O)N[C@H]1[C@H]([C@H](O)[C@H](O)CNC(=O)c2cc(C)c(O)c(C)c2)O[C@@](CC2OC(C)(C)O[C@H]2c2ccc3c(c2)N(C(=O)OC(C)(C)C)CC3)(C(=O)O)C[C@@H]1O (stereo partly shown) [A-308]
EC50: 2.94 µM

SMILES: Cc1cc2cc(C)c1OCCCC[C@H](NC(=O)C1CCCOC1)c1cccc(c1)/C=C/C[C@]1(C(=O)O)C[C@H](O)[C@@H](NC(=O)Cn3cc(C4CCCCC4)nn3)[C@@H](O1)[C@H](O)[C@H](O)CNC2=O (stereo partly shown) [A-350]
EC50: 13.3 µM

Results, then the molecule that gave them:

EC50: > 5 µM
SMILES: COC(C)C(=O)N1CC[C@@]2(COCCN2CC[C@]2(C(=O)O)C[C@H](O)[C@@H](NC(C)=O)[C@H]([C@H](O)[C@H](O)CNC(=O)c3cc(C)c(O)c(C)c3)O2)C1 (stereo partly shown) [A-082]

EC50: 1 µM
SMILES: CC(=O)N[C@H]1[C@H]([C@H](O)[C@H](O)CNC(=O)c2cc(C)c(O)c(C)c2)O[C@@](CCN2CCOC[C@@]23CCN(C(=O)COCC(C)C)C3)(C(=O)O)C[C@@H]1O [A-083]

EC50: 1.56 µM
SMILES: CC(=O)N[C@H]1[C@H]([C@H](O)[C@H](O)CNC(=O)c2cc(C)c(O)c(C)c2)O[C@@](CCN2CCOC[C@@]23CCN(C(=O)COC(C)C)C3)(C(=O)O)C[C@@H]1O [A-084]

EC50: 1.28 µM
SMILES: COC(C)(C)C(=O)N1CC[C@@]2(COCCN2CC[C@]2(C(=O)O)C[C@H](O)[C@@H](NC(C)=O)[C@H]([C@H](O)[C@H](O)CNC(=O)c3cc(C)c(O)c(C)c3)O2)C1 [A-085]

EC50: > 5 µM
SMILES: CC(=O)N[C@H]1[C@H]([C@H](O)[C@H](O)CNC(=O)c2cc(C)c(O)c(C)c2)O[C@@](CCN2CCOC[C@@]23CCN(C(=O)c2c(C)cccc2C)C3)(C(=O)O)C[C@@H]1O [A-086]

EC50: 1.95 µM
SMILES: CC(=O)N[C@H]1[C@H]([C@H](O)[C@H](O)CNC(=O)c2cc(C)c(O)c(C)c2)O[C@@](CCN2CCOC[C@@]23CCN(C(=O)COCC(F)(F)F)C3)(C(=O)O)C[C@@H]1O [A-088]

EC50: 3.12 µM
SMILES: CC(=O)N[C@H]1[C@H]([C@H](O)[C@H](O)CNC(=O)c2cc(C)c(O)c(C)c2)O[C@@](CCN2CCOC[C@@]23CCN(C(=O)COC(C)(C)C)C3)(C(=O)O)C[C@@H]1O [A-090]

EC50: 0.452 µM
SMILES: CC(=O)N[C@H]1[C@H]([C@H](O)[C@H](O)CNC(=O)c2cc(C)c(O)c(C)c2)O[C@@](CCN2CCOC[C@@]23CCN(C(=O)C2CCOCC2)C3)(C(=O)O)C[C@@H]1O [A-091]

EC50: 0.892 µM
SMILES: CC(=O)N[C@H]1[C@H]([C@H](O)[C@H](O)CNC(=O)c2cc(C)c(O)c(C)c2)O[C@@](CCN2CCOC[C@@]23CCN(C(=O)c2ccco2)C3)(C(=O)O)C[C@@H]1O [A-093]

EC50: 0.008 µM
SMILES: CC(=O)N[C@H]1[C@H]([C@H](O)[C@H](O)CNC(=O)c2cc(C)c(O)c(C)c2)O[C@@](CCN2CCN(C)C[C@@]23CCN(C(=O)NC(C)(C)C)C3)(C(=O)O)C[C@@H]1O [A-105]

EC50: 1.95 µM
SMILES: CC(=O)N[C@H]1[C@H]([C@H](O)[C@H](O)CNC(=O)c2cc(C)c(O)c(C)c2)O[C@@](CCN2CCN(C)C[C@]23CCN(C(=O)NC(C)(C)C)C3)(C(=O)O)C[C@@H]1O [A-106]

EC50: 0.379 µM
SMILES: CC(=O)N[C@H]1[C@H]([C@H](O)[C@H](O)CNC(=O)c2cc(C)c(O)c(C)c2)O[C@@](CCN2CCNC[C@]23CCN(C(=O)NC(C)(C)C)C3)(C(=O)O)C[C@@H]1O [A-107]

EC50: 0.026 µM
SMILES: CC(=O)N[C@H]1[C@H]([C@H](O)[C@H](O)CNC(=O)c2cc(C)c(O)c(C)c2)O[C@@](CCN2CCNC[C@@]23CCN(C(=O)NC(C)(C)C)C3)(C(=O)O)C[C@@H]1O [A-108]
